We go through eleven compounds from ChEMBL document CHEMBL4364252, “Tetrahydropyrazolo[1,5-a]pyridine-fused steroids and their in vitro biological evaluation in prostate cancer” (2019).

The target of assay [1] is T1, Androgen receptor (Homo sapiens) (UniProt P10275).
T1 sequence (whole entry): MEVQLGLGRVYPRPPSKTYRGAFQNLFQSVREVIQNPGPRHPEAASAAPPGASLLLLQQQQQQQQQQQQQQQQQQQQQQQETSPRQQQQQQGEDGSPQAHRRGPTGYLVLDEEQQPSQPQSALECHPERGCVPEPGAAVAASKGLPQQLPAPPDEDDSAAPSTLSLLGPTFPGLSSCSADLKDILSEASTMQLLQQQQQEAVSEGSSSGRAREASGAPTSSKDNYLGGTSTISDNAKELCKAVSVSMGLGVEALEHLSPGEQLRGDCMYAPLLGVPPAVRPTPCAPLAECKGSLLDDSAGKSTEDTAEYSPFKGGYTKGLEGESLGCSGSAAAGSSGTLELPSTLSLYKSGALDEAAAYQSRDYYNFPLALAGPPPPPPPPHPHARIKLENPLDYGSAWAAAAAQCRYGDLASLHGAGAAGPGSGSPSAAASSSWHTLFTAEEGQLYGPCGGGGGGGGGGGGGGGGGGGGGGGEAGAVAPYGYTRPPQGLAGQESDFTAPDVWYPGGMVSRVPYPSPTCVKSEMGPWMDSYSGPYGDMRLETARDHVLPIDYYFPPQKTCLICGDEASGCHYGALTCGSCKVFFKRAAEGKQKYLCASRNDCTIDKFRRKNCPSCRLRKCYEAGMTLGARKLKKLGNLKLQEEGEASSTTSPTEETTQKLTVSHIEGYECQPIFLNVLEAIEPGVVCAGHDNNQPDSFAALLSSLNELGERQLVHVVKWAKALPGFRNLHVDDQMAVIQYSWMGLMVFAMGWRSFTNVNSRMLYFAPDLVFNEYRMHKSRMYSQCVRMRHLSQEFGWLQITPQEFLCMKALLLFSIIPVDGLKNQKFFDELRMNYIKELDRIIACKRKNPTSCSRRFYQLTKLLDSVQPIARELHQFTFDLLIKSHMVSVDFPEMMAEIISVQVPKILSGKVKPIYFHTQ
Particulars: at 10 µM.
Description: Inhibition of R1881 induced-AR transcriptional activity in AR-positive human 22Rv1 cells harboring ARE14 construct at 10 uM after 24 hrs by luciferase assay

For assay [2], the target named is T1, Androgen receptor (Homo sapiens). Particulars: at 10 µM. The source holds these as a separate data set.
Description: Inhibition of AR transcriptional activity in AR-positive human 22Rv1 cells harboring ARE14 construct assessed as suppression of NKX3.1 expression at 10 uM after 24 hrs by immunoblot analysis
Assay [3] has as its system CWR22R. The assay can be described thus: Antiproliferative activity against AR-positive human 22Rv1 cells harboring ARE14 construct assessed as cell viability at 40 uM measured after 72 hrs by resazurin dye based fluorescence assay relative to control. The format is functional. Particulars: 22Rv1, 72 h, read-out: Activity. Background: The colour change of resazurin is a common sign of viable cells or microbes.

Assay [4] has as its system PC-3. As to the kind of experiment: Antiproliferative activity against AR-negative human PC3 cells assessed as cell viability at 40 uM measured after 72 hrs by resazurin dye based fluorescence assay relative to control. The format is functional. Particulars: PC-3, 72 h, read-out: Activity.
In assay [5] the test system is CWR22R. As to the kind of experiment: Antiproliferative activity against human AR-positive 22Rv1 cells harboring ARE14 construct assessed as growth inhibition measured after 72 hrs by resazurin dye based fluorescence assay. The assay is classed as functional. Particulars: 22Rv1, 72 h.
Assay [6] concerns LAPC4. As to the kind of experiment: Antiproliferative activity against AR-positive human LAPC4 cells assessed as cell viability at 40 uM measured after 72 hrs by resazurin dye based fluorescence assay relative to control. Particulars: LAPC4, 72 h, read-out: Activity. The format is functional.
The subject of assay [7] is CWR22R. The assay can be described thus: Effect on AR-V7 variant protein expression in AR-positive human 22Rv1 cells harboring ARE14 construct at 10 uM after 24 hrs by immunoblot analysis. The assay is classed as functional, cell-based. In general terms: A western blot detects proteins with antibodies after separation by electrophoresis.
Assay [8] deals with LAPC4. As to the kind of experiment: Antiproliferative activity against AR-positive human LAPC4 cells assessed as growth inhibition measured after 72 hrs by resazurin dye based fluorescence assay. The assay is classed as functional. Particulars: LAPC4, 72 h.
Assay [9] relates to LNCaP. As to the kind of experiment: Antiproliferative activity against AR-positive human LNCAP cells assessed as growth inhibition measured after 72 hrs by resazurin dye based fluorescence assay. The format is functional.
Assay [10] deals with PC-3. The assay can be described thus: Antiproliferative activity against AR-negative human PC3 cells assessed as growth inhibition measured after 72 hrs by resazurin dye based fluorescence assay. The format is functional. Particulars: PC-3, 72 h.
Assay [11] concerns VCaP. The assay can be described thus: Antiproliferative activity against AR-positive human VCaP cells assessed as growth inhibition measured after 72 hrs by resazurin dye based fluorescence assay. The format is functional.
Assay [12] relates to LNCaP. As to the kind of experiment: Antiproliferative activity against AR-positive human LNCAP cells assessed as cell viability at 40 uM measured after 72 hrs by resazurin dye based fluorescence assay relative to control. The assay is classed as functional. Particulars: read-out: Activity.
Assay [13] has as its system VCaP. The assay can be described thus: Antiproliferative activity against AR-positive human VCaP cells assessed as cell viability at 40 uM measured after 72 hrs by resazurin dye based fluorescence assay relative to control. The assay is classed as functional. Particulars: read-out: Activity.
Assay [14] deals with T1, Androgen receptor (Homo sapiens). Particulars: at 10 µM. The source holds these as a separate data set.
Description: Inhibition of AR transcriptional activity in AR-positive human 22Rv1 cells harboring ARE14 construct assessed as suppression of PSA expression at 10 uM after 24 hrs by immunoblot analysis

The source made the active and inactive calls. The rule behind the calls is not given here. Bounds are passed on as bounds.

One may read the GI50 as the concentration giving 50% growth inhibition. As for `COC(=O)c1nn2c(c1C(=O)OC)C[C@]1(C(C)=O)[C@@H](C[C@H]3[C@@H]4CC=C5C[C@@H](O)CC[C@]5(C)[C@H]4CC[C@@]31C)[C@H]2Cc1ccccc1`, the inhibition entry in assay [1], in [2] and in assay [14] was “inactive” throughout. The viability at 40 µM in the assay with CWR22R [3] amounted to 28.4%; in the assay on PC-3 [4] it was 64.7%; with LAPC4 [6], 81.3%; in the assay with LNCaP [12], 83.5%; with VCaP [13] it was 57%. Moreover, the GI50 in the assay on CWR22R [5], in the assay with LAPC4 [8], with LNCaP [9], in the assay with PC-3 [10] and in the assay on VCaP [11] was over 40 µM each time. Besides, the result in the assay on CWR22R [7] was inactive.

In the case of `COC(=O)c1cnn2c1C[C@]1(C(C)=O)[C@@H](C[C@H]3[C@@H]4CC=C5C[C@@H](OC(C)=O)CC[C@]5(C)[C@H]4CC[C@@]31C)C2`, in assay [1], the inhibition entry was “inactive”. Besides, the values for the viability at 40 µM in the assay on CWR22R [3], in the assay on PC-3 [4] and in the assay on VCaP [13] were 83.3%, over 100% and 84.9%, respectively. The GI50 in the assay on CWR22R [5], in the assay on PC-3 [10] and in the assay with VCaP [11] was over 40 µM each time. Moreover, the result in the assay with CWR22R [7] was inactive. For the same compound, the inhibition entry in assay [14] is “Active”.

On to `COC(=O)c1cnn2c1C[C@]1(C(C)=O)[C@@H](C[C@H]3[C@@H]4CC=C5C[C@@H](O)CC[C@]5(C)[C@H]4CC[C@@]31C)C2`, for which the inhibition result in assay [1] is “inactive”. For the same compound, the inhibition result in assay [2] and in [14] was “Active” each time. Besides, the viability at 40 µM in the assay on CWR22R [3] stood at 78.5%; with PC-3 [4], 89.6%; in the assay with VCaP [13] it was 90.4%. For the same compound, the GI50 with CWR22R [5], in the assay with PC-3 [10] and in the assay on VCaP [11] was over 40 µM in each case. In the assay with CWR22R [7], the outcome was inactive.

As to `COC(=O)c1nn2c(c1C(=O)OC)C[C@]1(C(C)=O)[C@@H](C[C@H]3[C@@H]4CCC5=CC(=O)CC[C@]5(C)[C@H]4CC[C@@]31C)C2`, the inhibition entry in assay [1] and in assay [14] was “inactive” each time. In assay [2], the inhibition result is “Active”. Also, the viability at 40 µM with CWR22R [3] worked out at 73.5%; with PC-3 [4], 94%; in the assay with VCaP [13], 80.3%. Besides, the GI50 with CWR22R [5], in the assay with PC-3 [10] and in the assay on VCaP [11] was over 40 µM in each case. Also, the outcome with CWR22R [7] was inactive.

For the compound `COC(=O)c1nn2c(c1C(=O)OC)C[C@]1(C(C)=O)[C@@H](C[C@H]3[C@@H]4CC=C5C[C@@H](O)CC[C@]5(C)[C@H]4CC[C@@]31C)C2`, the inhibition result in assay [1], in assay [2] and in [14] was “inactive” throughout. Besides, the viability at 40 µM was 88% in the assay on CWR22R [3], 71.7% in the assay on PC-3 [4] and over 100% with VCaP [13]. The GI50 with CWR22R [5], in the assay on PC-3 [10] and in the assay with VCaP [11] was over 40 µM each time. In addition, the outcome in the assay on CWR22R [7] was inactive.

With `COC(=O)c1nn2c(c1C(=O)OC)C[C@]1(C(C)=O)[C@@H](C[C@H]3[C@@H]4CC=C5C[C@@H](OC(C)=O)CC[C@]5(C)[C@H]4CC[C@@]31C)[C@H]2Cc1ccccc1`, the inhibition result in [1], in assay [2] and in assay [14] was “inactive” in each case. Moreover, the viability at 40 µM is 15% in the assay on CWR22R [3]; over 100% in the assay on PC-3 [4]; over 100% in the assay on LAPC4 [6]; 89.7% with LNCaP [12]; 85.9% in the assay on VCaP [13]. Further, the GI50 in the assay on CWR22R [5], in the assay on LAPC4 [8], in the assay on LNCaP [9], with PC-3 [10] and with VCaP [11] was over 40 µM each time. In addition, the outcome in the assay with CWR22R [7] was inactive.

Consider `COC(=O)c1nn2c(c1C(=O)OC)C[C@]1(C(C)=O)[C@@H](C[C@H]3[C@@H]4CCC5=CC(=O)CC[C@]5(C)[C@H]4CC[C@@]31C)[C@H]2Cc1ccccc1`, for which, in [1], the inhibition result is “inactive”. Further, the viability at 40 µM in the assay with CWR22R [3] was 63.3%; in the assay on PC-3 [4], over 100%; with LAPC4 [6], 97.2%; in the assay with LNCaP [12], 80.6%; with VCaP [13], 80.7%. The GI50 with CWR22R [5], in the assay on LAPC4 [8], in the assay with LNCaP [9], in the assay on PC-3 [10] and with VCaP [11] was over 40 µM each time. Further, the outcome in the assay with CWR22R [7] was inactive. The inhibition result in assay [14] was “Active”.

Turning to `C[C@@H](O)[C@@]12Cc3c(CO)c(CO)nn3[C@H](Cc3ccccc3)[C@@H]1C[C@H]1[C@@H]3CC=C4C[C@@H](O)CC[C@]4(C)[C@H]3CC[C@@]12C`, the inhibition entry in assay [1] was “inactive”. The viability at 40 µM is 55.8% in the assay with CWR22R [3]; over 100% with PC-3 [4]; 85.9% in the assay with LAPC4 [6]; 89.7% in the assay with LNCaP [12]; 43% in the assay with VCaP [13]. Besides, the GI50 in the assay on CWR22R [5], with LAPC4 [8], with LNCaP [9], in the assay on PC-3 [10] and in the assay on VCaP [11] was over 40 µM throughout. Further, the result in the assay on CWR22R [7] was inactive. In addition, in assay [14], the inhibition result is “Active”.

Regarding `C[C@@H](O)[C@@]12Cc3c(CO)cnn3C[C@@H]1C[C@H]1[C@@H]3CC=C4C[C@@H](O)CC[C@]4(C)[C@H]3CC[C@@]12C`, the inhibition result in [1] was “inactive”. The viability at 40 µM was 96.3% in the assay with CWR22R [3]; over 100% with PC-3 [4]; 92.2% with LAPC4 [6]; 82.8% in the assay with LNCaP [12]; 96.7% in the assay on VCaP [13]. For the same compound, the GI50 in the assay on CWR22R [5], in the assay with LAPC4 [8], in the assay with LNCaP [9], in the assay on PC-3 [10] and in the assay with VCaP [11] was over 40 µM in each case. For the same compound, in the assay with CWR22R [7], the result was inactive.

For `CC(=O)[C@@]12Cc3c(C(=O)O)cnn3C[C@@H]1C[C@H]1[C@@H]3CCC4=CC(=O)CC[C@]4(C)[C@H]3CC[C@@]12C`, the inhibition entry in [1], in assay [2] and in assay [14] was “inactive” in each case. The viability at 40 µM with CWR22R [3] is 92.4%; with PC-3 [4] it was over 100%; in the assay on VCaP [13], 95.7%. Also, the GI50 in the assay on CWR22R [5], with PC-3 [10] and with VCaP [11] was over 40 µM in each case. In addition, the outcome with CWR22R [7] was inactive.

For the compound `CNC(=O)c1ccc(N2C(=S)N(c3ccc(C#N)c(C(F)(F)F)c3)C(=O)C2(C)C)cc1F` [ENZALUTAMIDE], the viability at 40 µM in the assay on CWR22R [3] was 84%; in the assay on PC-3 [4] it was 88.7%; in the assay on LAPC4 [6], 80.3%; in the assay with LNCaP [12] it was 94.2%; with VCaP [13], 61.2%.
